The target of one assay is T1, P2X2 F303Y (Homo sapiens, UniProt Q9UBL9, F303Y).
T1 construct: expressed in transfected cells; host or cells: S. cerevisiae BY4741 background
T1 sequence (Q9UBL9 1-471 F303Y): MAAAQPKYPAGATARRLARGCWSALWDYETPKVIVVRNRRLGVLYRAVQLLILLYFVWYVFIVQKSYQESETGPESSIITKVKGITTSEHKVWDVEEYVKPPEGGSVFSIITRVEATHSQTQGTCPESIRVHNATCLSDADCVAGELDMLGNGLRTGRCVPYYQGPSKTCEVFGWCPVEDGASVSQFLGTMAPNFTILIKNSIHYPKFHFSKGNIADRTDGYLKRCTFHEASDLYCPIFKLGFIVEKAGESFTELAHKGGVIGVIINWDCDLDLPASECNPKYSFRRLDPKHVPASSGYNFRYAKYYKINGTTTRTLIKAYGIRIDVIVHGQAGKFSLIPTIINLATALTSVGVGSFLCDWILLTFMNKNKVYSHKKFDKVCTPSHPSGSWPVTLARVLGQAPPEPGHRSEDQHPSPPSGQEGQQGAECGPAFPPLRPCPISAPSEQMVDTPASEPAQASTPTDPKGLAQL
Kind of assay: Fast GCaMP-mScarletI assay in yeast, P2X2 F303Y. The class given is cell-based. The note with it: for Bottom, best fit value / Hillslope, best fit value / Top, best fit value: four-parameter logistic fit of ΔF/ΔT; for Bottom, best fit value / Hillslope, best fit value / Top, best fit value / EC50: n = 3; for EC50: four-parameter logistic fit, unit inferred, unit M, read-out: EC50, best fit value. On the procedure: (§1) Figure 4 Unnatural-ligand gating in LBD libraries.A, WT P2X2 was tested with 1 mM ATP, 500 μM AMP-PNP, and compared to ATP with the broken receptor (K81C K83C) control with 1 mM ATP in the fast GCaMP-mScarletI assay (n = 3). […] B, heat map summarizing AMP-PNP signaling (ΔF/ΔT, fast GCaMP-mScarletI assay) in the site-saturation libraries (n = 2–3). All values are normalized to WT P2X2 with saturating amounts of AMP-PNP (500 μM) and therefore represent low signal (ΔF/ΔT) compared to the ATP ligand. C, F301W, F303Y, and A304W were combinatorially combined and tested against the WT, K81C K83C broken P2X2, and the single mutant clones with both ATP (1 mM, black) and AMP-PNP (500 μM, pink). […] Values here represent signal onset and are not normalized to a positive control (n = 2–5). D–K, dose response of each P2X variant with both ATP (black) and AMP-PNP (pink) in the fast GCaMP-mScarletI assay (n = 3). Statistics were performed via one-way ANOVA with Dunnett’s multiple comparisons with to the “broken” K81C K83C negative control. ∗ represents a p value ≤0.05, ∗∗ is p ≤ 0.01, and ∗∗∗ is p ≤ 0.001.
(§2) Given that the yeast-based screen seemed to recapitulate important structural and functional features of human ion channel function, we hypothesized that it might be possible to engineer new P2X2 functionalities in yeast, including new ligand specificity. […] We screened our 133-member library in the presence of 500 μM AMP-PNP (Fig. S7). While the AMP-PNP signal was uniformly low, three substitutions (F301W, F303Y, and A304W) increased signaling 2.5 to 2.8 times relative to the negative control receptor (Figs. 4B, and S7, D, F, and G). To gain a more complete view of the properties of these mutants, dose–response curves were generated with ATP and AMP-PNP (Fig. 4, D–G, and Table S2).
(§3) GCaMP assays were performed as follows. P2X2 GCaMP strains were designed with a bi-cistronic reporter, in which the GCaMP protein was followed by a 2A peptide and a mScarletI reporter ([53]). The co-translated mScarletI was designed to act as a control for plasmid loss, GCaMP breakage via nonsense mutation, and contamination. […] P2X2-GCaMP strains were cultured and induced as previously described. Samples were induced for 24 h to allow for the accumulation of the mature GCaMP protein. Cells were washed three times in 0.1 M MES/Tris buffer and resuspended with MES/Tris with supplemental calcium. Cells were loaded onto a black, clear bottom microplate and imaged on a FlexStation3 plate reader. Samples were imaged in “flex” mode. Samples were imaged for 48 s at an interval of 1.6 s. Fluorescence was measured with an excitation at 485 nm, and emission 525 nm. At the 21 s mark, 100 μl ligand solution was transferred to the cells. For strains with mScarlet, fluorescence was read with excitation 570 nm/emission 610 nm. Slopes were calculated from the last 6 points of measurement and were normalized to the positive control samples. Any replicate in which the mScarlet value was measured to be over 2 standard deviations less than the mean for that set was discarded from further analysis.
(§4) For multiple comparisons in the site-saturation screening data, One-way ANOVA with Dunnett’s multiple comparisons test was performed where every sample was compared to the “broken” negative control. Significance was plotted where ∗ represents a p value ≤0.05, ∗∗ is p ≤0.01, and ∗∗∗ is p ≤0.001. Dose–response curves were fit with nonlinear regression software using a four-parameter logistic curve. All statistics were calculated and plotted in Graphpad Prism software.

For a further assay, the target named is T2, P2X2 A304W (Homo sapiens, UniProt Q9UBL9, A304W).
T2 construct: expressed in transfected cells; host or cells: S. cerevisiae BY4741 background
T2 sequence (Q9UBL9 1-471 A304W): T1 sequence (Q9UBL9 1-471 F303Y) with Y303F, A304W
Put plainly: Fast GCaMP-mScarletI assay in yeast, P2X2 A304W. It is filed as cell-based. The note with it: for Bottom, best fit value / Hillslope, best fit value / Top, best fit value: four-parameter logistic fit of ΔF/ΔT; for Bottom, best fit value / Hillslope, best fit value / Top, best fit value / EC50: n = 3; for EC50: four-parameter logistic fit, unit inferred, unit M, read-out: EC50, best fit value. On the procedure: as §1, §2, §3, §4

We go through two compounds from article PMC11063903, “Engineering a human P2X2 receptor with altered ligand selectivity in yeast” (The Journal of Biological Chemistry, 2024).

In general, EC50 refers to the concentration needed to bring the measured effect to its halfway point.

Substitutions are numbered along the chain they refer to.

For `Nc1ncnc2c1ncn2[C@@H]1O[C@H](COP(=O)(O)OP(=O)(O)NP(=O)(O)O)[C@@H](O)[C@H]1O` [AMP-PNP], on P2X2 F303Y (AMP-PNP dose-response, Fig. 4D-G, Table S2), the “activity compared to the wild-type” value is listed as 1.89 fold. Moreover, on P2X2 F303Y, the “Bottom, best fit value” came out at 0.2603; the “Hillslope, best fit value” was 0.8857; the “Top, best fit value” was determined as 2.141; the EC50 was determined as 328 µM. Also, on P2X2 A304W (AMP-PNP dose-response, high ligand concentrations), the “activity compared to the wild-type” value is on record as 55.87 fold. Moreover, at P2X2 A304W, the “Bottom, best fit value” is recorded as -0.1131; the “Hillslope, best fit value” turned out to be 1.702; the “Top, best fit value” amounted to 50.72; the half-maximal effective concentration (EC50) is 621 µM.

As for `Nc1ncnc2c1ncn2[C@@H]1O[C@H](COP(=O)(O)OP(=O)(O)OP(=O)(O)O)[C@@H](O)[C@H]1O` [ATP], at P2X2 F303Y, the “Bottom, best fit value” turned out to be 0.80; the “Hillslope, best fit value” came to 2.18; the “Top, best fit value” was determined as 68.07; the 50% effective concentration (EC50) is 3.6 µM. Further, on P2X2 A304W, the “Bottom, best fit value” came out at 0.89; the “Hillslope, best fit value” turned out to be 2.41; the “Top, best fit value” turned out to be 67.64; the half-maximal effective concentration (EC50) stood at 16.6 µM.
